# Results reported in paper PMC6599250, “Functional diversity of inhibitors tackling the differentiation blockage of MLL-rearranged leukemia” (Journal of Hematology & Oncology, 2019).
# Like-named read-outs stand apart in the source and are kept apart here.
# Assays:
# Format in all cases: cell-based
# HL-60 cells = assay: CD11b protein expression by flow cytometry, HL-60; details: non-fused HL-60 cell line, 4 and 7 days of treatment
# Experimental: (§1) Four thousand cells per well were seeded 24 h before they were treated with the indicated inhibitor in a 96 MTP. After 4 or 7 days of treatment, cells were washed with PBS and stained with CD11b - APC (BioLegend, San Diego, California, USA) and DAPI (Thermo Fisher Scientific, Waltham, Massachusetts, USA) or AnnexinV – FITC (BioLegend, San Diego, California, USA) and PI solution (Sigma-Aldrich St. Louis, Missouri, USA) using the FACS Canto II (BD Biosciences, Heidelberg, Germany) and data was analyzed with FACSDiva software.
# OCI-AML-5 (MLL-WT) cells = assay: Cell proliferation (alamarBlue) OCI-AML-5; details: Homo sapiens, OCI-AML-5, OCI-AML-5 (MLL-WT), read-out: IC50 proliferation
# Experimental: (§2) Cells were seeded in the optimal growth medium at 4000–5000 cells/well in a 96 MTP and cultured 18–24 h before inhibitor treatment.
# RS4;11 (MLL-AF4) cells = assay: Cell proliferation (alamarBlue) RS4;11; details: Homo sapiens, RS4-11, RS4;11 (MLL-AF4), read-out: IC50 proliferation
# Experimental: as §2
# MOLM-13 (MLL-AF9) cells = assay: Cell proliferation (alamarBlue) MOLM-13; details: Homo sapiens, MOLM-13, MOLM-13 (MLL-AF9), read-out: IC50 proliferation
# Experimental: as §2
# MV4-11 (MLL-AF4) cells = assay: Cell proliferation (alamarBlue) MV4-11; details: Homo sapiens, MV4-11, MV4-11 (MLL-AF4), read-out: IC50 proliferation
# Experimental: as §2
# [1] = system: MV4-11, MOLM-13 and HL-60 cells; assay: Cell proliferation, all three tested AML cell lines; details: 96 h; all tested cell lines (MV4-11, MOLM-13, HL-60), 4 days of treatment (Fig. 1a); read-out: anti-proliferation IC50s
# Experimental: Cells were seeded in the optimal growth medium at 4000–5000 cells/well in a 96 MTP and cultured 18–24 h before inhibitor treatment. Upon treatment with the indicated inhibitor, cells were cultured for 24 h, 96 h, and 168 h and effects on proliferation were determined using alamarBlue Cell Viability Reagent (Thermo Fisher Scientific, Waltham, MA, USA).
# HL-60 (MLL-WT) cells = assay: Cell proliferation (alamarBlue) HL-60; details: Homo sapiens, HL-60 (MLL-WT), read-out: IC50 proliferation
# Experimental: as §2
# ML-2 (MLL-AF6) cells = assay: Cell proliferation (alamarBlue) ML-2; details: ML-2 (MLL-AF6), read-out: IC50 proliferation
# Experimental: as §2
# Jurkat (MLL-WT) cells = assay: Cell proliferation (alamarBlue) Jurkat; details: Homo sapiens, Jurkat (MLL-WT)
# Experimental: as §2
# [2] = system: OCI-AML-2 (MLL-AF9) cells; assay: Cell proliferation (alamarBlue) OCI-AML-2; details: Homo sapiens, OCI-AML2, OCI-AML-2 (MLL-AF9), read-out: IC50 proliferation
# Experimental: as §2
# EOL-1 (MLL-TD) cells = assay: Cell proliferation (alamarBlue) EOL-1; details: Homo sapiens, EOL1, EOL-1 (MLL-TD), read-out: IC50 proliferation
# Experimental: as §2
# OCI-AML-3 (MLL-WT) cells = assay: Cell proliferation (alamarBlue) OCI-AML-3; details: Homo sapiens, OCI-AML-3, OCI-AML-3 (MLL-WT), read-out: IC50 proliferation
# Experimental: as §2
# [3] = system: MV4-11, MOLM-13 and HL-60 cells; assay: Cell cycle analysis (PI, flow cytometry); details: 4 days of treatment (Figure S2)
# Experimental: Cells were washed with PBS and fixed overnight at − 20 °C with 70% ethanol. Fixed cells were stained with PI solution (Sigma-Aldrich St. Louis, MO, USA) solution containing RNase A (Qiagen, Hilden, Germany). Fluorescence was measured with FACS Canto II (BD Biosciences, Heidelberg, Germany) flow cytometer and data was analyzed with FACSDiva software.
# MOLM-14 (MLL-AF9) cells = assay: Cell proliferation (alamarBlue) MOLM-14; details: Homo sapiens, MOLM-14, MOLM-14 (MLL-AF9), read-out: IC50 proliferation
# Experimental: as §2
# KOPN-8 (MLL-ENL) cells = assay: Cell proliferation (alamarBlue) KOPN-8; details: Homo sapiens, KOPN-8, KOPN-8 (MLL-ENL), read-out: IC50 proliferation
# Experimental: as §2
# SEM (MLL-AF4) cells = assay: Cell proliferation (alamarBlue) SEM; details: SEM (MLL-AF4), read-out: IC50 proliferation
# Experimental: as §2
# NOMO-1 (MLL-AF9) cells = assay: Cell proliferation (alamarBlue) NOMO-1; details: Homo sapiens, NOMO-1, NOMO-1 (MLL-AF9), read-out: IC50 proliferation
# Experimental: as §2
# [4] = system: MLL-fused cell lines (MV4-11, MOLM-13); assay: CD11b protein expression by flow cytometry, MLL-fused lines; details: 4 and 7 days of treatment
# Experimental: as §1
# [5] = 168 h, 7 days of treatment (D7)
# [6] = D1, read-out: IC50 proliferation
# [7] = D4, read-out: IC50 proliferation
# [8] = D7, read-out: IC50 proliferation
smiles,measurement,setting,value
Cc1sc2c(c1C)C(c1ccc(Cl)cc1)=N[C@@H](CC(=O)Nc1ccc(O)cc1)c1nnc(C)n1-2 [OTX015],CD11b level,HL-60 cells,treatment did
same,IC50,OCI-AML-5 (MLL-WT) cells; D1,> 10000 nM
same,IC50,OCI-AML-5 (MLL-WT) cells; D4,70 nM
same,IC50,OCI-AML-5 (MLL-WT) cells; D7,80 nM
same,IC50,RS4;11 (MLL-AF4) cells; D1,> 10000 nM
same,IC50,RS4;11 (MLL-AF4) cells; D4,170 nM
same,IC50,RS4;11 (MLL-AF4) cells; D7,150 nM
same,IC50,MOLM-13 (MLL-AF9) cells; D1,> 10000 nM
same,IC50,MOLM-13 (MLL-AF9) cells; D4,30 nM
same,IC50,MOLM-13 (MLL-AF9) cells; D7,110 nM
same,IC50,MV4-11 (MLL-AF4) cells; D1,> 10000 nM
same,IC50,MV4-11 (MLL-AF4) cells; D4,140 nM
same,IC50,MV4-11 (MLL-AF4) cells; D7,180 nM
same,IC50,[1],30 to 140 nM
same,IC50,"HL-60 (MLL-WT) cells; 24 h, 1 day of treatment (D1)",> 10000 nM
same,IC50,"HL-60 (MLL-WT) cells; 96 h, 4 days of treatment (D4)",70 nM
same,IC50,HL-60 (MLL-WT) cells; [5],270 nM
same,IC50,ML-2 (MLL-AF6) cells; D1,> 10000 nM
same,IC50,ML-2 (MLL-AF6) cells; D4,390 nM
same,IC50,ML-2 (MLL-AF6) cells; D7,180 nM
same,IC50,Jurkat (MLL-WT) cells; [6],> 10000 nM
same,IC50,Jurkat (MLL-WT) cells; [7],100 nM
same,IC50,Jurkat (MLL-WT) cells; [8],170 nM
same,IC50,[2]; D1,> 10000 nM
same,IC50,[2]; D7,80 nM
same,IC50,EOL-1 (MLL-TD) cells; D1,> 10000 nM
same,IC50,EOL-1 (MLL-TD) cells; D4,30 nM
same,IC50,EOL-1 (MLL-TD) cells; D7,40 nM
same,IC50,OCI-AML-3 (MLL-WT) cells; D1,> 10000 nM
same,IC50,OCI-AML-3 (MLL-WT) cells; D4,40 nM
same,IC50,OCI-AML-3 (MLL-WT) cells; D7,70 nM
same,cell cycle effect,[3],decrease of cells in S and G2/M phase with increasing concentrations
same,IC50,MOLM-14 (MLL-AF9) cells; D1,> 10000 nM
same,IC50,MOLM-14 (MLL-AF9) cells; D4,40 nM
same,IC50,MOLM-14 (MLL-AF9) cells; D7,60 nM
same,IC50,KOPN-8 (MLL-ENL) cells; D1,> 10000 nM
same,IC50,KOPN-8 (MLL-ENL) cells; D4,300 nM
same,IC50,KOPN-8 (MLL-ENL) cells; D7,320 nM
same,IC50,SEM (MLL-AF4) cells; D1,> 10000 nM
same,IC50,SEM (MLL-AF4) cells; D4,70 nM
same,IC50,SEM (MLL-AF4) cells; D7,80 nM
same,IC50,NOMO-1 (MLL-AF9) cells; D1,> 10000 nM
same,IC50,NOMO-1 (MLL-AF9) cells; D4,10 nM
same,IC50,NOMO-1 (MLL-AF9) cells; D7,10 nM
same,CD11b protein level,[4],increased CD11b protein level in a dose and time-dependent manner
COc1cc(F)ccc1-c1cc(Nc2cc(CS(C)(=N)=O)ccn2)ncc1F (stereo not drawn) [BAY 1251152],CD11b level,HL-60 cells,treatment did
same,IC50,OCI-AML-5 (MLL-WT) cells; D1,160 nM
same,IC50,OCI-AML-5 (MLL-WT) cells; D4,50 nM
same,IC50,OCI-AML-5 (MLL-WT) cells; D7,30 nM
same,IC50,RS4;11 (MLL-AF4) cells; D1,110 nM
same,IC50,RS4;11 (MLL-AF4) cells; D4,90 nM
same,IC50,RS4;11 (MLL-AF4) cells; D7,90 nM
same,IC50,MOLM-13 (MLL-AF9) cells; D1,70 nM
same,IC50,MOLM-13 (MLL-AF9) cells; D4,60 nM
same,IC50,MOLM-13 (MLL-AF9) cells; D7,70 nM
same,IC50,MV4-11 (MLL-AF4) cells; D1,230 nM
same,IC50,MV4-11 (MLL-AF4) cells; D4,70 nM
same,IC50,MV4-11 (MLL-AF4) cells; D7,220 nM
same,IC50,[1],30 to 140 nM
same,IC50,"HL-60 (MLL-WT) cells; 24 h, 1 day of treatment (D1)",140 nM
same,IC50,"HL-60 (MLL-WT) cells; 96 h, 4 days of treatment (D4)",110 nM
same,IC50,HL-60 (MLL-WT) cells; [5],240 nM
same,IC50,ML-2 (MLL-AF6) cells; D1,110 nM
same,IC50,ML-2 (MLL-AF6) cells; D4,200 nM
same,IC50,ML-2 (MLL-AF6) cells; D7,230 nM
same,IC50,Jurkat (MLL-WT) cells; [6],140 nM
same,IC50,Jurkat (MLL-WT) cells; [7],30 nM
same,IC50,Jurkat (MLL-WT) cells; [8],30 nM
same,IC50,[2]; D1,70 nM
same,IC50,[2]; D4,110 nM
same,IC50,[2]; D7,70 nM
same,IC50,EOL-1 (MLL-TD) cells; D1,70 nM
same,IC50,EOL-1 (MLL-TD) cells; D4,30 nM
same,IC50,EOL-1 (MLL-TD) cells; D7,60 nM
same,IC50,OCI-AML-3 (MLL-WT) cells; D1,90 nM
same,IC50,OCI-AML-3 (MLL-WT) cells; D4,110 nM
same,IC50,OCI-AML-3 (MLL-WT) cells; D7,180 nM
same,cell cycle effect,[3],decrease of cells in S and G2/M phase with increasing concentrations
same,IC50,MOLM-14 (MLL-AF9) cells; D1,40 nM
same,IC50,MOLM-14 (MLL-AF9) cells; D4,40 nM
same,IC50,MOLM-14 (MLL-AF9) cells; D7,70 nM
same,IC50,KOPN-8 (MLL-ENL) cells; D1,160 nM
same,IC50,KOPN-8 (MLL-ENL) cells; D4,120 nM
same,IC50,KOPN-8 (MLL-ENL) cells; D7,210 nM
same,IC50,SEM (MLL-AF4) cells; D1,260 nM
same,IC50,SEM (MLL-AF4) cells; D4,90 nM
same,IC50,SEM (MLL-AF4) cells; D7,200 nM
same,IC50,NOMO-1 (MLL-AF9) cells; D1,240 nM
same,IC50,NOMO-1 (MLL-AF9) cells; D4,60 nM
same,IC50,NOMO-1 (MLL-AF9) cells; D7,100 nM
